According to patent US8673979B2, “Pharmaceutical compositions for headache, migraine, nausea and emesis” (Meditor Pharmaceuticals Ltd., priority 2000, dated 2014):

Assays:
migraine attack = experiment: Case reports: oral tablets during migraine attacks; assay type: in vivo, human; conditions: for Side effects of past medical treatment: in vivo
Description: Previous medical history: The subject is a smoking person first diagnosed as a classical migraine sufferer. Except for this they are completely healthy. Until two years ago the frequency of the migraine attacks was seven episodes per month. During the last two years they were treated with different kinds of recognized medications, with little or no success. Due to lack of response to the medical treatment during the migraine attacks, they tried alternative medicine treatments.
First attack: The subject suffered an acute migraine attack that lasted 72 hours. […] On the next day the subject received a single dose of 50 mg S-ethylisothiouronium diethylphosphate (2 tablets of 25 mg each). […] Between 10 to 15 minutes following administration the pain abruptly disappeared, as did all other symptoms, which appeared during the migraine attack.
Second attack: (three weeks later) The second migraine attack started during the night. On the next day the subject received once again 2 tablets of S-ethylisothiouronium diethylphosphate (50 mg). This time the intake of the tablets was during the peak of the migraine attack, after having a meal. Within 20 minutes the headache was relieved, the subject was able to focus their eyesight, and the photophobia disappeared. There was a weak headache but its intensity was reduced. Three hours later the subject took two more tablets of S-ethylisothiouronium diethylphosphate (50 mg). Within 15 minutes the migraine pain disappeared.
Third attack: (two and a half weeks after the second attack) the migraine attack started on their way to work. An hour after onset within the peak of the migraine attack, the subject received 2 tablets of S-ethylisothiouronium diethylphosphate (each of 25 mg). Drug was taken on empty stomach. Within 11 minutes the migraine symptoms disappeared.
Previous Medical History: The subject is a non-smoking person suffering from migraine attacks during the last two years. The frequency of the migraine attacks is once a month before the menstruation period. The pain appears in the temples, the sinuses and spreads down to the lower jaw. The duration of the photophobia was about 48 hours. So far the subject has not applied to receive specific medical treatment and used to take conventional analgesic drugs.
First attack: The onset of an acute migraine attack was in the morning and the symptoms grew stronger during the day. Just before noon time the subject received one tablet of S-ethylisothiouronium diethylphosphate (25 mg). […] Two hours later the subject received 2 more tablets of S-ethylisothiouronium diethylphosphate (each of 25 mg). Ten minutes later, the migraine pain disappeared.
Second attack: (about four weeks after the first attack) The migraine attack started as a consequence of very hot weather conditions. The intensity of this attack was greater than the usual migraine attacks. In the morning, the subject received 2 tablets of S-ethylisothiouronium diethylphosphate (50 mg) that were taken on an empty stomach. Within 20 minutes of S-ethylisothiouronium diethylphosphate intake there was a significant relief in migraine pain. Fifteen minutes later the pain disappeared. Later that day, during the afternoon, the subject suffered a weak pain. This time the subject self administered analgesic drugs and the pain disappeared.

[1] = test system: acute migraine attack (headache); experiment: Clinical trial of intravenous Difetur 10% solution in acute migraine attack; assay type: in vivo, human; conditions: for Percentage of Patients Benefited by Treatment / Mean time elapsed to Effect: 0.6 mg/kg IV drip; for Mean time elapsed to Effect: to grade 1-0
Description: The purpose of following exploratory protocol was to evaluate the safety and potential efficacy of Difetur 10% solution for injection, in dose 0.6 mg/kg, in treatment of a single acute migraine attack. The study was designed as an open study in a selected population of subjects classified according to IHS criteria as suffering from migraine headaches of moderate or severe intensity, without aura. The study was conducted according to established international criteria for evaluating safety and efficacy for migraine treatment.
Difetur was presented as 10% (100 mg/mL) solution in 1 mL ampoules. It was dissolved in 100 mL of saline solution in intravenous device before treatment. The dose of Difetur was 0.6 mg/kg, given by intravenous drip during 10 min.
Headache severity was graded verbally on a 5-point scale: very severe (grade 4), severe (grade 3), moderate (grade 2), mild (grade 1), no pain (grade 0). Success was considered as reduction of the headache severity from very severe, severe or moderate (grade 4-2) to mild or no pain (grade 1-0).

[2] = test system: emesis during migraine attack; experiment: Difetur tablets: emesis/nausea treatment during migraine attack; assay type: in vivo, human
Description: (§1) The purpose of following exploratory protocol is to evaluate the safety and potential efficacy of Difetur (S-ethylisothiouronium diethylphosphate) tablets, in escalating doses starting at 10 mg and up to 50 mg, in the treatment of a single acute migraine attack. The study was designed as an open study in a selected population of subjects classified according to IHS criteria as suffering from migraine headaches of moderate or severe intensity, without aura. The study was conducted according to established international criteria for evaluating safety and efficacy for migraine treatment.
(§2) The study was performed as a 5 arm (groups) study. Only female patients classified as suffering from migraine without aura, according to IHS criteria are enrolled in the study. Each group consists of ten migraine patients who are treated during an acute migraine attack with Difetur tablets in a hospital setting. The initial dose of Difetur is 10 mg (1 tablet), consequently increasing to 20 mg, 30 mg, 40 mg, and 50 mg. The total number of patients to be enrolled is 50. The patients are hospitalized and followed for at least 4 hours to assess the safety, efficacy and possible side effects of Difetur.
4.2 Secondary Efficacy Targets are the Reduction of Nausea, Vomiting and Light And Sound Sensitivity.
These are assigned for their presence, absence or disappearance as documented by the patient.

[3] = test system: acute migraine attack (headache); experiment: Dose escalating exploratory study of Difetur tablets for acute migraine attack: headache reduction; assay type: in vivo, human; conditions: for Percentage of Patients Benefited by Treatment: headache grade 3-4 reduced to 1-2; for Time elapsed to Effect: time after ingestion to headache grade 1-2
Description: Dose escalating exploratory study on the safety and efficacy of Difetur tablets for the treatment of acute migraine attack.
as §1, §2
In the first group of 10 patients each receive the initial dose of 10 mg of the study medication in a single tablet form. The dose of 50 mg is given as two tablets of 25 mg each. The tablets are individually packed in blister package, and have a label identifying the study medication as an investigational drug. Each dose in an escalating manner is given to 10 patients. The medication is swallowed with a glass of water under the supervision of an attending physician.
Headache severity is graded verbally in a 4-points scale: severe (grade 4), moderate (grade 3), mild (grade 2), or no pain (grade 1). Success is considered as a reduction of the headache severity from a severe or moderate headache (grade 3-4) to mild or no pain (grade 1-2).

[4] = therapeutic doses; cited from earlier work
[5] = Case 2, second attack, 50 mg oral, empty stomach

CNS(=O)(=O)Cc1ccc2[nH]cc(CCN(C)C)c2c1 [Imitrex, Sumatriptan succinate, reference compound]
Side effects of past medical treatment (migraine attack): various strong side effects

CN(C)CCc1c[nH]c2ccc(C[C@H]3COC(=O)N3)cc12 [Zomig, reference compound]
Side effects of past medical treatment (migraine attack): various strong side effects

S-ethylisothiouronium diethylphosphate [Difetur]
Percentage of Patients Benefited by Treatment ([1]; headache grade 2): 87%
Mean time elapsed to Effect ([1]; headache grade 2): 13.7 min
Percentage of Patients Benefited by Treatment ([1]; headache grade 3): 100%
Mean time elapsed to Effect ([1]; headache grade 3): 25.5 min
Percentage of Patients Benefited by Treatment ([1]; headache grade 4): 100%
Mean time elapsed to Effect ([1]; headache grade 4): 50 min
Headache relief, overall ([1]; 0.6 mg/kg IV, 13 patients, all except one): significant headache relief
Side effects (migraine attack; Case 1, 50 mg oral): No side effects
Time to headache relief (migraine attack; Case 1, second attack, 50 mg oral, after a meal): ≤ 20 min
Time to disappearance of migraine pain (migraine attack; Case 1, second attack, further 50 mg three hours later): ≤ 15 min
Time to disappearance of migraine symptoms (migraine attack; Case 1, third attack, 50 mg oral, empty stomach): ≤ 11 min
Frequency of migraine attacks after treatment (migraine attack; Case 1, previously seven episodes per month): about three
Side effects (migraine attack; Case 2, 25 or 50 mg oral): No side effects
Time to disappearance of migraine pain (migraine attack; Case 2, first attack, 2 more 25 mg tablets two hours later): Ten
Change in migraine pain (migraine attack; Case 2, first attack, one 25 mg tablet): No substantial change
Time from significant relief to disappearance of pain (migraine attack; [5]): Fifteen
Time to significant relief in migraine pain (migraine attack; [5]): ≤ 20 min
Time to elimination of migraine symptoms (migraine attack; both case reports, at peak of attack): less than 20 minutes
Headache recurrence (rebound/relapse) (migraine attack; case reports): not observed
Percentage of Patients Affected by Treatment (positive anti-emetic response) ([2]; 10 mg oral): 70%
Time elapsed until Effect (termination of emesis) ([2]; 10 mg oral): 28 min
Percentage of Patients Affected by Treatment (positive anti-emetic response) ([2]; 20 mg oral): 100%
Time elapsed until Effect (termination of emesis) ([2]; 20 mg oral): 25 min
Percentage of Patients Affected by Treatment (positive anti-emetic response) ([2]; 30 mg oral): 100%
Time elapsed until Effect (termination of emesis) ([2]; 30 mg oral): 29 min
Effect of low doses on nausea ([2]; low doses ineffective or less effective on headache): effective at reducing or abolishing the symptoms of nausea
Percentage of Patients Benefited by Treatment ([3]; 10 mg oral tablet): 0%
Percentage of Patients Benefited by Treatment ([3]; 20 mg oral): 70%
Time elapsed to Effect ([3]; 20 mg oral): 43 min
Percentage of Patients Benefited by Treatment ([3]; 30 mg oral): 70%
Time elapsed to Effect ([3]; 30 mg oral): 58 min
Side effects ([3]; clinical trials, human subjects): no side effects
Time to dramatic improvement ([3]; in some cases): ≤ 15 min
Time to reduction of migraine symptoms, on average ([3]; oral, at peak of migraine attack): around 45 minutes
Time to relief ([3]; treatment initiated at peak of migraine attack): ≤ 60 min

CN1C[C@H](C(=O)N[C@]2(C)O[C@@]3(O)[C@@H]4CCCN4C(=O)[C@H](Cc4ccccc4)N3C2=O)C=C2c3cccc4[nH]cc(c34)C[C@H]21 [ergotamine]
Patients with nausea and vomiting [4]: up to 10%
